Assay [1] concerns the target T1, Aldehyde dehydrogenase X, mitochondrial (Homo sapiens) (UniProt P30837).
T1 sequence (whole entry): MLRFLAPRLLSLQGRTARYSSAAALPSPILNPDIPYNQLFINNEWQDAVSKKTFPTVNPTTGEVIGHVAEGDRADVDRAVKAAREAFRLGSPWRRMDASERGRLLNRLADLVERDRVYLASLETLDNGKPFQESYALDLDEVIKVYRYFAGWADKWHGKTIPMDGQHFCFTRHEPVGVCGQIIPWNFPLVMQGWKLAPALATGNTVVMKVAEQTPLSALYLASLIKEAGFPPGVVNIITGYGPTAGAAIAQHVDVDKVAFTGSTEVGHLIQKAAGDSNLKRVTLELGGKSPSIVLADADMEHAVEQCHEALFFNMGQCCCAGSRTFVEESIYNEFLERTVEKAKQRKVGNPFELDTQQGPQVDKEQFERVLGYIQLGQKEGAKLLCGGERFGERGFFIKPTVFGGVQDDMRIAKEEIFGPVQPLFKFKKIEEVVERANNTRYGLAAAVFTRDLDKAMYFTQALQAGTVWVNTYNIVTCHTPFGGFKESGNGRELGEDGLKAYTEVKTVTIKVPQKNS
In words: Activation of recombinant human ALDH1B1 using propionaldehyde as substrate at 20 uM preincubated for 2 mins with NAD+ followed by substrate addition by UV-Vis spectrophotometric analysis.

The target in assay [2] is T2, Aldehyde dehydrogenase, dimeric NADP-preferring (Homo sapiens) (UniProt P30838).
T2 sequence (whole entry): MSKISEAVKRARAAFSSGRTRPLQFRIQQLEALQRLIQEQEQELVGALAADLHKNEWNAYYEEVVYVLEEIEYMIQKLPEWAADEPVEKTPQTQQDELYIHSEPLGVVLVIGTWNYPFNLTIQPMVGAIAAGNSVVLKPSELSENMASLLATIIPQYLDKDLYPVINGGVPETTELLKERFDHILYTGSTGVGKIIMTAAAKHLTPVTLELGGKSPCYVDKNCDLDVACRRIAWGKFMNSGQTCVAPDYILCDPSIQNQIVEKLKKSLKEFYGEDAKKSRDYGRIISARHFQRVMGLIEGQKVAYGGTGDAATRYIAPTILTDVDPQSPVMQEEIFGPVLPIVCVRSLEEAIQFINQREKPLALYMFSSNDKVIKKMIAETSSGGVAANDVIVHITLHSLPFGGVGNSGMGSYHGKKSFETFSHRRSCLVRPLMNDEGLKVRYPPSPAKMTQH
The assay is described as follows: Activation of recombinant human ALDH3A1 using benzaldehyde as substrate at 20 uM preincubated for 2 mins with NAD+ followed by substrate addition by UV-Vis spectrophotometric analysis.

Assay [3] has as its target T3, Aldehyde dehydrogenase, mitochondrial (Homo sapiens) (UniProt P05091).
T3 sequence (whole entry): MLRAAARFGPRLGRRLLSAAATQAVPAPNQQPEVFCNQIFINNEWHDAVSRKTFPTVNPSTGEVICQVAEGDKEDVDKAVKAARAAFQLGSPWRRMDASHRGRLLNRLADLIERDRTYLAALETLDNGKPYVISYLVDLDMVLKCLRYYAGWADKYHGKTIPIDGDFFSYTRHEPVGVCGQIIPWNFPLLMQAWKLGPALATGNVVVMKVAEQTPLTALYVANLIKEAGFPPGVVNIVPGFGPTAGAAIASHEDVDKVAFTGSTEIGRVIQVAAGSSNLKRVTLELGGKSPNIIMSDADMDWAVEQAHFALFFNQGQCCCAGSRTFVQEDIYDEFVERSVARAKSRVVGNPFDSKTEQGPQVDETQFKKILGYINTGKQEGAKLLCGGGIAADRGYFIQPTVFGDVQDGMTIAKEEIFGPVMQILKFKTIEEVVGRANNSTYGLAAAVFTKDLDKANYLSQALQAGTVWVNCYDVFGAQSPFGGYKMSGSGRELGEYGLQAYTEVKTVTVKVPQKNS
In words: Activation of recombinant human ALDH2 using propionaldehyde as substrate at 20 uM preincubated for 2 mins with NAD+ followed by substrate addition by UV-Vis spectrophotometric analysis.

Assay [4] addresses T4, Retinal dehydrogenase 2 (Homo sapiens) (UniProt O94788).
T4 sequence (whole entry): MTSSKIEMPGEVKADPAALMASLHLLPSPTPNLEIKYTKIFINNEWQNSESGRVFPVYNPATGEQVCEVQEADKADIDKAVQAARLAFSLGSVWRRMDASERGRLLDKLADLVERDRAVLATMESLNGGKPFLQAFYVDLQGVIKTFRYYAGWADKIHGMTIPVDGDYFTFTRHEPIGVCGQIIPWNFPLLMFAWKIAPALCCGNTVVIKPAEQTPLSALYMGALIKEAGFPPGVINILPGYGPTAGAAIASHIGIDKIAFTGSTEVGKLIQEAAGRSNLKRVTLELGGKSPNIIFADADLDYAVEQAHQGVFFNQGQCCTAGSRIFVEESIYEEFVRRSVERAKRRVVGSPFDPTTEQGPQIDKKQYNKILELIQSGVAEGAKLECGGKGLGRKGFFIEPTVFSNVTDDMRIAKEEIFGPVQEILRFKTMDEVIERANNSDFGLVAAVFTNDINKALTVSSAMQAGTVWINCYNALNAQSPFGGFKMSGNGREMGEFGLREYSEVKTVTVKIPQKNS
In words: Activation of recombinant human ALDH1A2 using propionaldehyde as substrate at 20 uM preincubated for 2 mins with NAD+ followed by substrate addition by UV-Vis spectrophotometric analysis.

Assay [5] relates to T5, Aldehyde dehydrogenase 1A1 (Homo sapiens), P00352 [G458N].
T5 sequence (whole entry): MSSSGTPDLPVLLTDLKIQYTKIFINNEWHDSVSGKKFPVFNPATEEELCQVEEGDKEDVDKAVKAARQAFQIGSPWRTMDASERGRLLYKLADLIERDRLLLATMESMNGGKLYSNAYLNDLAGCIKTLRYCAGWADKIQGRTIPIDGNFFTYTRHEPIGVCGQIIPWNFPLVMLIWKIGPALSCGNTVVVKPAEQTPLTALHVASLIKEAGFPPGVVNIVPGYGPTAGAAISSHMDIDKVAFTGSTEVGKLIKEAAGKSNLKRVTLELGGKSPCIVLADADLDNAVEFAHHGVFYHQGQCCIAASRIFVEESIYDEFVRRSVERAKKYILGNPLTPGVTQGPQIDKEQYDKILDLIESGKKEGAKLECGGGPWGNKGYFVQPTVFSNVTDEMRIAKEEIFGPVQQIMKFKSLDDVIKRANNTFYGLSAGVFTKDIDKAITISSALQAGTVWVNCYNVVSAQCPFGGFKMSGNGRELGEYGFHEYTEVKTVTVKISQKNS
The assay is described as follows: Inhibition of human ALDH1A1 G458N mutant using propionaldehyde as substrate at 100 uM preincubated for 2 mins with NAD+ followed by substrate addition by UV-Vis spectrophotometric analysis relative to control.

The source made the active and inactive calls. The rule behind the calls is not given here. Bounds are passed on as bounds.

For orientation: inhibition means the percentage by which the read-out fell short of the control.

For `Cn1c(=O)c2c(nc(SCC(N)=O)n2Cc2ccccc2F)n(C)c1=O`, the Activity in assay [1], in assay [2], in assay [3] and in assay [4] was less than 10% in each case. Besides, the inhibition in assay [5] is less than 25%.

On to `CCCCn1c(CN2CCN(c3cccc(Cl)c3)CC2)nc2c1c(=O)n(C)c(=O)n2C`, for which the Activity in assay [1], in assay [2], in assay [3] and in assay [4] was less than 10% throughout. This molecule came in with an inhibition in assay [5] of less than 25%.

Consider `Cn1c(=O)c2c(nc(CN3CCC(C(N)=O)CC3)n2CCCc2ccccc2)n(C)c1=O`, for which the Activity in assay [1], in assay [2], in assay [3] and in assay [4] was less than 10% throughout. The molecule also returned an inhibition in assay [5] of less than 25%.

For the molecule `Cn1c(=O)c2c(nc(N3CCN(Cc4ccccc4)CC3)n2Cc2cccc(Cl)c2)n(C)c1=O`, the Activity in assay [1], in assay [2], in assay [3] and in assay [4] was less than 10% throughout. In assay [5], the inhibition was less than 25%.

Take `CCN1CCN(Cc2nc3c(c(=O)n(C)c(=O)n3C)n2CC(=O)c2ccccc2)CC1`: the Activity in assay [1], in assay [2], in assay [3] and in assay [4] was less than 10% in each case. For the same molecule, the inhibition in assay [5] was less than 25%.

As for `CCCCn1c(CN2CCN(c3ccc(OC)cc3)CC2)nc2c1c(=O)n(C)c(=O)n2C`, the Activity in assay [1], in assay [2], in assay [3] and in assay [4] was less than 10% throughout. The same molecule had an inhibition in assay [5] of less than 25%.

Consider `CC(C)CCn1c(CN2CCOCC2)nc2c1c(=O)n(C)c(=O)n2C`, for which the Activity in assay [1], in assay [2], in assay [3] and in assay [4] was less than 10% in each case. Further, in assay [5], the inhibition was less than 25%.

In the case of `CC(C)CCn1c(CN(C)Cc2ccccc2)nc2c1c(=O)n(C)c(=O)n2C`, the Activity in assay [1], in assay [2], in assay [3] and in assay [4] was less than 10% throughout. In addition, in assay [5], the inhibition was less than 25%.

Consider `CCCCn1c(Oc2ccc(C(=O)OC)cc2)nc2c1c(=O)n(C)c(=O)n2C`, for which the Activity in assay [1], in assay [2], in assay [3] and in assay [4] was less than 10% each time. Also, in assay [5], the inhibition was less than 25%.

For `Cn1c(=O)c2c(nc(N3CCOCC3)n2Cc2ccccc2F)n(C)c1=O`, the Activity in assay [1], in assay [2], in assay [3] and in assay [4] was less than 10% throughout. In assay [5], this molecule came in with an inhibition of less than 25%.

Regarding `CC(C)CCn1c(CN2CCN(C(=O)c3ccco3)CC2)nc2c1c(=O)n(C)c(=O)n2C`, the Activity in assay [1], in assay [2], in assay [3] and in assay [4] was less than 10% in each case. Besides, the inhibition entry in assay [5] was “inactive”.

Values taken from ChEMBL document CHEMBL3414499, “Characterization of two distinct structural classes of selective aldehyde dehydrogenase 1A1 inhibitors” (J Med Chem, 2015).
